From patent US10370327B2, “Ionic liquid films with multiple functionalities for surface modification of biomedical alloys” (BOARD OF REGENTS, THE UNIVERSITY OF TEXAS SYSTEM, priority 2014, dated 2019)
Where two headings read alike, the source gives them in different places.

Tests used:
[1] = Thermal analysis of pure ionic liquid and equimolar mixture with TiO2 nanoparticles; type: physicochemical
Experimental: In order to evaluate the affinity of ionic liquids with the titanium surface, experiments were conducted with imidazole derived ionic liquids having as contra-ion the anions Br^−, BF4^− and NTf2^−. In the study, TiO2 nanoparticles were used instead of bulk titanium in order to allow for a better understanding of the interaction of the selected ionic liquids with the Ti oxide film (TiO2). Thermal behavior of TiO2 pure (nanoparticles), ionic liquid pure and the equimolar mixture of TiO2 and the different ionic liquids attempted were evaluated. […] Based upon the loss of a glass transition and the introduction of a new melting point for the TiO2 nanoparticle and the [DBMIM]2[NTf2], without wishing to be bound by any theory, it is believed that a more organized structural arrangement is formed (Grindri, et al., 2014).

MC3T3-E1 cell line [2] = experiment: MTT cytotoxicity assay, dose-response in MC3T3-E1 cells; type: cell-based; conditions: read-out: Toxicity IC50
Text: Without wishing to be bound by any theory, it is believed that the ionic liquids (ILs) structures prevent the hydrophobic effects of the imidazolium cation and thus cellular uptake by the introduction of a second cationic head. These structures, which are formed by two imidazolium rings linked by an alkyl chain and anionic counterpart, may result in non-toxic compounds because the dicationic structure will not be able to penetrate and alter the physical properties of the lipid bilayer. The ionic liquids were synthesized and performed preliminary studies with the dicationic imidazolium-based IL compounds as described above, and the IC50 values were assessed through MTT assay (Gindri et al., 2014).
The ionic liquids were synthesized and performed preliminary studies with the dicationic imidazolium-based IL compounds as described above, and the IC50 values were assessed through MTT assay (Egorova et al., 2014). The toxicity of ionic liquids was accessed using MC3T3-E1 cell lines. The cells were plated in 6-well plates and after 24 h, cells were treated with media containing a range of concentrations of ionic liquids. All concentrations tested for generation of dose-response curves. A non-linear regression sigmoidal dose-response curve was fitted to each set of values to allow the calculation of IC50 values.

[3] = DLS of TiO2 particles and equimolar TiO2 + ionic liquid; type: physicochemical; conditions: for Rh1 hydrodynamic radius: IL + TiO2, relaxation mode 1; for Rh2 hydrodynamic radius: IL + TiO2, relaxation mode 2; for Thickness of IL film on TiO2 particles: difference IL + TiO2 minus TiO2
Experimental: To evaluate the morphologic characteristics of new structures formed by TiO2+ionic liquid both DLS and SEM techniques were used. […] DLS experiments were performed with TiO2 particles only, and with solutions of equimolar amounts of TiO2+ionic liquid. The hydrodynamic radius (Rh) of pure TiO2 particles and mixture of TiO2+ionic liquid was monitored and compared in order to analyze the formation of new organized phases related to ionic liquid film adhesion on TiO2 particles. […] The value from the difference between the size of TiO2+ionic liquid and TiO2 was used to calculate ionic liquid film thickness formed on TiO2 particles.
Comparing the data between pure TiO2 and the mixtures of [DBMIM]2[Br], [DBMIM]2[BF4] and [DBMIM]2[NTf2], it can be observed that in the first relaxation mode (Rh1) a small difference was detected between the size of the particles, which can be related with the single TiO2 nanoparticles, [DBMIM]2[Br], [DBMIM]2[BF4] and [DBMIM]2[NTf2] dispersed in solution. However, in the second relaxation mode a significant difference was noted between the size of pure TiO2 nanoparticles and TiO2+ionic liquid (Table 6). It was observed that Rh2 tended to increase with ionic liquid presence, which thus indicates film formation on the particles surface. Another interesting characteristic from the DLS results is that film thickness increased with hydrophobicity of anions (FIG. 1), which is in agreement with the trend reported by Ulbricht and Wittmar, 2012.

[4] = test system: gingival epithelial (HGF-1); experiment: Cell proliferation (MTT) on IL-coated Ti, gingival epithelial cells; type: cell-based; conditions: HGF-1, 1 and 7 days
S. mutans = S. mutans planktonic and biofilm CFU on IL-coated Ti in artificial saliva/BHI; type: cell-based, Streptococcus mutans
Experimental: To determine if ILs retain antimicrobial activity when applied to Ti, preliminary experiments with two ILs (IL9 and IL12) and S. mutans, an early colonizer. Control Ti, IL9-coated Ti, and IL12-coated Ti were immersed in artificial saliva/brain heart infusion (BHI) medium containing S. mutans for 24 h and 72 h. After this period, planktonic bacterial cells in the fluid medium in which disks were immersed, and biofilm cells, adhered to the disk surface, were quantified by serial dilution and plating.

[5] = test system: osteoblast-like cells (MC3T3-E1); experiment: Alkaline phosphatase activity / osteoblast differentiation on IL-coated Ti; type: cell-based; conditions: day 1 and day 7
Text: FIGS. 6A-6F show osteoblast identification through alkaline phosphatase assay. Ti Control on day 1 (FIG. 6A) and day 7 (FIG. 6D) along with IL9 coated Ti shown on day 1 (FIG. 6B) and day 7 (FIG. 6E) are shown. […] Cell differentiation was observed after 7 days on Ti control and IL9 coated Ti in which osteoblast are distinguished from stem cells by the purple color of the stain as indicated by the black arrows. […] As such, these compounds can be considered to be non-toxic to cells while still maintaining anti-microbial properties.
Experiments were performed in which Ti control disks, IL9-coated Ti, and IL12-coated Ti were exposed to gingival epithelial (HGF-1) and osteoblast-like cells (MC3T3-E1) during periods of 1 and 7 days. It was observed that after 1 day both Ti control and IL-coated Ti were covered with a layer of osteoblast-like cells (FIGS. 6A & 6B) illustrating the initial cell attachment on the surface. […] In vitro and in vivo osteoblast cell differentiation can be characterized during a phase denominated matrix maturation. During this period, a high expression of alkaline phosphatase (AP) is observed and can be used as an early differentiation marker to evaluate the differentiation of stem cells into osteoblasts (Shang et al., 2014 and Wang et al., 2012). […]

[6] = test system: osteoblast-like cells (MC3T3-E1); experiment: Cell proliferation (MTT) on IL-coated Ti, osteoblast-like cells; type: cell-based; conditions: MC3T3-E1, 1 and 7 days
MC3T3-E1 cell line [7] = conditions: monocationic analogue of IL1, comparison value; read-out: IC50 of monocationic IL; cited from earlier work

Question: What does the source list for `C[n+]1ccn(CCCCCCCCn2cc[n+](C)c2)c1.[Br-].[Br-]` [IL-1, 1,8-bis(3-methylimidazolium-1-yl) octane bromide]?
Answer: Td1 first decomposition temperature ([1]; IL + TiO2 equimolar mixture): 310.0 °C; Td2 second decomposition temperature ([1]; IL + TiO2 equimolar mixture): 372.9 °C; Td1 first decomposition temperature ([1]; pure ionic liquid): 307.5 °C; IC50 (MC3T3-E1 cell line [2]; Mus musculus): 24.6 ± 3.5 mM; Rh1 hydrodynamic radius [3]: 0.8 nm; Rh2 hydrodynamic radius [3]: 421.9 nm; Thickness of IL film on TiO2 particles ([3]; relaxation mode 1): 0.2 nm; Thickness of IL film on TiO2 particles ([3]; relaxation mode 2): 118.4 nm

Question: With “1,8-Bis(3-methylimidazolium-1-yl)octane diascorbate [IL-2]” as the compound, how does the IC50 (MC3T3-E1 cell line [2]) read?
Answer: Its IC50 is 3.6 ± 0.6 mM.

Question: Which results are given for `C[n+]1ccn(CCCCCCCCCCn2cc[n+](C)c2)c1.[Br-].[Br-]` [IL-7, 1,10-Bis(3-methylimidazolium-1-yl)decane dibromide]?
Answer: melting point: 130.77 °C; IC50 (MC3T3-E1 cell line [2]; Mus musculus): 12.3 ± 0.1 mM

Question: With “1,8-Bis(3-methylimidazolium-1-yl)octane diphenylalanine [IL-3]” as the compound, how does the IC50 (MC3T3-E1 cell line [2]) read?
Answer: The IC50 was 8.3 ± 3 mM.

Question: Which “Td1 first decomposition temperature” value ([1]; IL + TiO2 equimolar mixture) does the source give for `C[n+]1ccn(CCCCCCCCn2cc[n+](C)c2)c1.F[B-](F)(F)F.F[B-](F)(F)F` [IL-13, 1,8-bis(3-methylimidazolium-1-yl) octane tetrafluorborate] here?
Answer: Its value is 343.8 °C.

Question: And the “Td2 second decomposition temperature” value ([1]; IL + TiO2 equimolar mixture)?
Answer: The value was 455.8 °C.

Question: What about the “Td1 first decomposition temperature” value ([1]; pure ionic liquid) of the same compound?
Answer: The value was 346.8 °C.

Question: And the “Td2 second decomposition temperature” value ([1]; pure ionic liquid)?
Answer: Its value is 455.8 °C.

Question: What about the Rh1 hydrodynamic radius [3] of the same compound?
Answer: Its Rh1 hydrodynamic radius is 0.7 nm.

Question: What about the Rh2 hydrodynamic radius [3] of the same compound?
Answer: Its Rh2 hydrodynamic radius is 513.0 nm.

Question: And the “Thickness of IL film on TiO2 particles” value ([3]; relaxation mode 1)?
Answer: Its value is 0.1 nm.

Question: What about the “Thickness of IL film on TiO2 particles” value ([3]; relaxation mode 2) of the same compound?
Answer: The value was 209.5 nm.

Question: For `C[n+]1ccn(CCCCCCCCCCn2cc[n+](C)c2)c1` [IL-8, 1,10-Bis(3-methylimidazolium-1-yl)decane diascorbate], which IC50 (MC3T3-E1 cell line [2]) is on record?
Answer: Its IC50 is 3.1 ± 1.2 mM.

Question: What does the source list for `C[n+]1ccn(CCCCCCCCCCn2cc[n+](C)c2)c1.NC(Cc1ccccc1)C(=O)[O-].NC(Cc1ccccc1)C(=O)[O-]` [IL-9, 1,10-Bis(3-methylimidazolium-1-yl)decane diphenylalanine]?
Answer: IC50 (MC3T3-E1 cell line [2]): 8.5 ± 1.5 mM; Cell proliferation versus Ti control [4]: did not show significant differences; Anti-S. mutans activity of coated surface (S. mutans; 72 h trial): retain significant anti-S. mutans activity; S. mutans recovered from coated Ti surfaces (S. mutans; biofilm cells after 24 h, control Ti ~10^6 CFU): ~10^2 CFU; ALP activity / cell differentiation versus Ti control [5]: without statistically significant differences; Cell proliferation versus Ti control [6]: did not show significant differences

Question: Which IC50 (MC3T3-E1 cell line [2]) does the source give for “1,8-Bis(3-methylimidazolium-1-yl)octane dimethionine [IL-6]” here?
Answer: The IC50 was 24.2 ± 10.3 mM.

Question: For “1,8-Bis(3-methylimidazolium-1-yl)octane dileucine [IL-4]”, which IC50 (MC3T3-E1 cell line [2]) is on record?
Answer: Its IC50 is 12.5 ± 0.2 mM.

Question: Which IC50 (MC3T3-E1 cell line [2]) does the source give for “1,8-Bis(3-methylimidazolium-1-yl)octane dihistidine [IL-5]” here?
Answer: Its IC50 is 25.7 ± 8.7 mM.

Question: For `CCCCCCCCn1cc[n+](C)c1` [[C8mim][Br]], which IC50 (MC3T3-E1 cell line [7]) is on record?
Answer: The IC50 was 1.51 ± 0.2 mM.

Question: For `CC(C)C[C@H](N)C(=O)O.CC(C)C[C@H](N)C(=O)O.C[n+]1ccn(CCCCCCCCCCn2cc[n+](C)c2)c1` [IL-10, 1,10-Bis(3-methylimidazolium-1-yl)decane dileucine], which IC50 (MC3T3-E1 cell line [2]) is on record?
Answer: The IC50 was 12.3 ± 0.5 mM.

Question: Which results are given for `CSCC[C@H](N)C(=O)O.CSCC[C@H](N)C(=O)O.C[n+]1ccn(CCCCCCCCCCn2cc[n+](C)c2)c1` [IL-12, 1,10-Bis(3-methylimidazolium-1-yl)decane dimethionine]?
Answer: IC50 (MC3T3-E1 cell line [2]): 13.9 ± 2.7 mM; Antimicrobial activity of coated Ti against S. mutans (S. mutans; 24 h and 72 h immersion): did not show significant antimicrobial activity

Question: For `C[n+]1ccn(CCCCCCCCCCn2cc[n+](C)c2)c1.N[C@@H](Cc1c[nH]cn1)C(=O)O.N[C@@H](Cc1c[nH]cn1)C(=O)O` [IL-11, 1,10-Bis(3-methylimidazolium-1-yl)decane dihistidine], which IC50 (MC3T3-E1 cell line [2]) is on record?
Answer: The IC50 was 12.9 ± 1.1 mM.

Question: Which “Td1 first decomposition temperature” value ([1]; IL + TiO2 equimolar mixture) does the source give for “1,8-bis(3-methylimidazolium-1-yl)octane bis (trifluoromethane) sulfonimide [IL-14]” here?
Answer: Its value is 463 °C.

Question: What about the “Td1 first decomposition temperature” value ([1]; pure ionic liquid) of the same compound?
Answer: Its value is 473 °C.

Question: What about the Rh1 hydrodynamic radius [3] of the same compound?
Answer: Its Rh1 hydrodynamic radius is 1.6 nm.

Question: And the Rh2 hydrodynamic radius [3]?
Answer: The Rh2 hydrodynamic radius was 894.6 nm.

Question: What about the “Thickness of IL film on TiO2 particles” value ([3]; relaxation mode 1) of the same compound?
Answer: The value was 0.9 nm.

Question: And the “Thickness of IL film on TiO2 particles” value ([3]; relaxation mode 2)?
Answer: The value was 591.1 nm.
